Organism: Rattus norvegicus
Assay: DrugMatrix - Regimen: Daily Repeat
Assay type: toxicity, organism-based, Sprague-Dawley
Set-up: regimen Daily Repeat, gender Male, age 6-8 weeks
Settings: in vivo, po, route oral GAVAGE, vehicle .5 % CMC; for ABSOLUTE BASOPHIL / ABSOLUTE EOSINOPHIL / ABSOLUTE LYMPHOCYTE / ABSOLUTE MONOCYTE / ABSOLUTE SEGMENTED NEUTROPHIL / BASOPHIL / EOSINOPHIL / ERYTHROCYTE COUNT / HEMATOCRIT / HEMOGLOBIN / LEUKOCYTE COUNT / LYMPHOCYTE / MEAN CORPUSCULAR HEMOGLOBIN / MEAN CORPUSCULAR HEMOGLOBIN CONCENTRATION / MEAN CORPUSCULAR VOLUME / MONOCYTE / NEUTROPHIL / NUCLEATED RED BLOOD CELLS / PLATELET COUNT: tissue Blood; for ALANINE AMINOTRANSFERASE / ALBUMIN / ALKALINE PHOSPHATASE / ASPARTATE AMINOTRANSFERASE / BLOOD UREA NITROGEN / CARBON DIOXIDE / CHLORIDE / CHOLESTEROL / CREATINE PHOSPHOKINASE / CREATININE / GLUCOSE / LACTATE DEHYDROGENASE / LIPASE / PHOSPHORUS / POTASSIUM / SODIUM / TOTAL BILIRUBIN / TOTAL PROTEIN / URIC ACID: tissue Plasma
[1] = 0 mg/kg, 72 h, dose level Control, time 3 day
[2] = 0 mg/kg, 120 h, dose level Control, time 5 day
[3] = 385.5 mg/kg, 72 h, dose level Low, time 3 day

Cn1c(=O)c2c(ncn2CC(O)CO)n(C)c1=O (centres undefined) [DYPHYLLINE]
ABSOLUTE BASOPHIL [1]: 0 CELLS/uL
ABSOLUTE EOSINOPHIL [1]: 32.5 CELLS/uL
ABSOLUTE LYMPHOCYTE [1]: 13494.17 CELLS/uL
ABSOLUTE MONOCYTE [1]: 474 CELLS/uL
ABSOLUTE SEGMENTED NEUTROPHIL [1]: 1932.67 CELLS/uL
BASOPHIL [1]: 0%
EOSINOPHIL [1]: 0.17%
ERYTHROCYTE COUNT [1]: 5.45 x10E6/uL
HEMATOCRIT [1]: 34.32%
HEMOGLOBIN [1]: 13.82 G/DL
LEUKOCYTE COUNT [1]: 15.93 x10E3/uL
LYMPHOCYTE [1]: 84.83%
MEAN CORPUSCULAR HEMOGLOBIN [1]: 25.38 pg
MEAN CORPUSCULAR HEMOGLOBIN CONCENTRATION [1]: 40.27 G/DL
MEAN CORPUSCULAR VOLUME [1]: 63.05 fL
MONOCYTE [1]: 3%
NEUTROPHIL [1]: 12%
NUCLEATED RED BLOOD CELLS [1]: 0.67 /100WBC
PLATELET COUNT [1]: 1188.5 x10E3/uL
ALANINE AMINOTRANSFERASE [1]: 54.83 u/L
ALBUMIN [1]: 4.22 G/DL
ALKALINE PHOSPHATASE [1]: 427.67 u/L
ASPARTATE AMINOTRANSFERASE [1]: 86.5 u/L
BLOOD UREA NITROGEN [1]: 15.33 mg/dL
CARBON DIOXIDE [1]: 24.83 mmol/L
CHLORIDE [1]: 102.33 MEQ/L
CHOLESTEROL [1]: 71.67 mg/dL
CREATINE PHOSPHOKINASE [1]: 442.5 u/L
CREATININE [1]: 0.19 mg/dL
GLUCOSE [1]: 160.67 mg/dL
LACTATE DEHYDROGENASE [1]: 236.5 u/L
LIPASE [1]: 9 u/L
PHOSPHORUS [1]: 11.97 mg/dL
POTASSIUM [1]: 6.2 MEQ/L
SODIUM [1]: 142.85 MEQ/L
TOTAL BILIRUBIN [1]: 0.2 mg/dL
TOTAL PROTEIN [1]: 5.8 G/DL
URIC ACID [1]: 1.3 mg/dL
ABSOLUTE BASOPHIL [2]: 0 CELLS/uL
ABSOLUTE EOSINOPHIL [2]: 114.5 CELLS/uL
ABSOLUTE LYMPHOCYTE [2]: 14614 CELLS/uL
ABSOLUTE MONOCYTE [2]: 173 CELLS/uL
ABSOLUTE SEGMENTED NEUTROPHIL [2]: 1048.5 CELLS/uL
BASOPHIL [2]: 0%
EOSINOPHIL [2]: 0.67%
ERYTHROCYTE COUNT [2]: 5.66 x10E6/uL
HEMATOCRIT [2]: 35.52%
HEMOGLOBIN [2]: 14.27 G/DL
LEUKOCYTE COUNT [2]: 15.95 x10E3/uL
LYMPHOCYTE [2]: 91.33%
MEAN CORPUSCULAR HEMOGLOBIN [2]: 25.23 pg
MEAN CORPUSCULAR HEMOGLOBIN CONCENTRATION [2]: 40.2 G/DL
MEAN CORPUSCULAR VOLUME [2]: 62.7 fL
MONOCYTE [2]: 1.17%
NEUTROPHIL [2]: 6.83%
NUCLEATED RED BLOOD CELLS [2]: 0.33 /100WBC
PLATELET COUNT [2]: 1229 x10E3/uL
ALANINE AMINOTRANSFERASE [2]: 58.67 u/L
ALBUMIN [2]: 4.32 G/DL
ALKALINE PHOSPHATASE [2]: 382.5 u/L
ASPARTATE AMINOTRANSFERASE [2]: 81.67 u/L
BLOOD UREA NITROGEN [2]: 17.67 mg/dL
CARBON DIOXIDE [2]: 27.17 mmol/L
CHLORIDE [2]: 102.33 MEQ/L
CHOLESTEROL [2]: 63.67 mg/dL
CREATINE PHOSPHOKINASE [2]: 227.67 u/L
CREATININE [2]: 0.23 mg/dL
GLUCOSE [2]: 155.33 mg/dL
LACTATE DEHYDROGENASE [2]: 146.5 u/L
LIPASE [2]: 10.67 u/L
PHOSPHORUS [2]: 11.93 mg/dL
POTASSIUM [2]: 6.85 MEQ/L
SODIUM [2]: 143.95 MEQ/L
TOTAL BILIRUBIN [2]: 0.18 mg/dL
TOTAL PROTEIN [2]: 6.02 G/DL
URIC ACID [2]: 1.63 mg/dL
ABSOLUTE BASOPHIL [3]: 0 CELLS/uL
ABSOLUTE EOSINOPHIL [3]: 40.67 CELLS/uL
ABSOLUTE LYMPHOCYTE [3]: 10748 CELLS/uL
ABSOLUTE MONOCYTE [3]: 461.33 CELLS/uL
ABSOLUTE SEGMENTED NEUTROPHIL [3]: 1483.33 CELLS/uL
BASOPHIL [3]: 0%
EOSINOPHIL [3]: 0.33%
ERYTHROCYTE COUNT [3]: 5.3 x10E6/uL
HEMATOCRIT [3]: 33.37%
HEMOGLOBIN [3]: 13.27 G/DL
LEUKOCYTE COUNT [3]: 12.73 x10E3/uL
LYMPHOCYTE [3]: 86%
MEAN CORPUSCULAR HEMOGLOBIN [3]: 25.13 pg
MEAN CORPUSCULAR HEMOGLOBIN CONCENTRATION [3]: 39.8 G/DL
MEAN CORPUSCULAR VOLUME [3]: 63.07 fL
MONOCYTE [3]: 3%
NEUTROPHIL [3]: 10.67%
NUCLEATED RED BLOOD CELLS [3]: 0.33 /100WBC
PLATELET COUNT [3]: 1358 x10E3/uL
ALANINE AMINOTRANSFERASE [3]: 42.67 u/L
ALBUMIN [3]: 4.03 G/DL
ALKALINE PHOSPHATASE [3]: 400.67 u/L
ASPARTATE AMINOTRANSFERASE [3]: 72 u/L
BLOOD UREA NITROGEN [3]: 15.67 mg/dL
CARBON DIOXIDE [3]: 25.33 mmol/L
CHLORIDE [3]: 103 MEQ/L
CHOLESTEROL [3]: 72.33 mg/dL
CREATINE PHOSPHOKINASE [3]: 199.67 u/L
CREATININE [3]: 0.14 mg/dL
GLUCOSE [3]: 152 mg/dL
LACTATE DEHYDROGENASE [3]: 149.67 u/L
LIPASE [3]: 9.33 u/L
PHOSPHORUS [3]: 13 mg/dL
POTASSIUM [3]: 7.04 MEQ/L
SODIUM [3]: 144.5 MEQ/L
TOTAL BILIRUBIN [3]: 0.17 mg/dL
TOTAL PROTEIN [3]: 5.57 G/DL
URIC ACID [3]: 1.53 mg/dL

Source: ChEMBL document CHEMBL3885881, “DrugMatrix”
